Reference: publication doi:10.1101/2025.01.17.633618, “Systematic Determination of the Impact of Structural Edits on Peptide Accumulation into Mycobacteria” (bioRxiv, 2025)
Like-named read-outs stand apart in the source and are kept apart here. Bridge positions count the residues as written; N and C are the ends. Square brackets hold non-standard residues; d marks the D form. Peptide text beside a SMILES is read from it. * marks the point of attachment. Lys(N3) = [N-]=[N+]=NCCCC[C@H](N)C(=O)O; Azidoacetyl = [N-]=[N+]=NCC(=O)*; NMeF = CN[C@@H](Cc1ccccc1)C(=O)O; NMeL = CN[C@@H](CC(C)C)C(=O)O

Key:
[1] = tested on: Mycobacterium smegmatis strain mc2155 (Msm)
Serum stability assay = type: in vitro ADME; details: mouse serum, 37 °C, 1.0 mM peptide; time points 0, 15, 30, 60 min; RP-HPLC (C8), AUC normalized to internal standard Fmoc-L-phenylalanine
Method: was added to the system. The systems were prepared using the CHARMM scripts provided by CHARMM-GUI.4 The CHARMM36m force field5 was employed for the MD simulations. After energy minimization and 500 ps equilibration, a 100 ns production run was performed. All production MD simulations were performed for the NPT ensemble at 303.15 K and 1 atm using NAMD3. Long-range electrostatic interactions were treated using the particle mesh Ewald (PME) method 6 while Lennard-Jones (LJ) interactions were managed with a force-based switching function applied between 10 Å and 12 Å. […] Hydrogen bonds between different residues within the same peptide were analyzed using the last 50 ns of the simulation.
Serum stability assay. Time course degradation in mouse serum was evaluated for peptides Lin0, Cyc0, Nmet0 and Nmet9. […]
The samples were then centrifuged at 21,000×g for 5 min. […] 110 μL of the filtrate was then analyzed using Phenomenex Luna 5 µm C8(2) on RP-HPLC; gradient elution in H2O/CH3CN with 0.1% TFA at 1 mL/min. […]
Minimum inhibitory concentration (MIC) assay. […] MIC values were determined both visually and readings of OD (wells OD < 0.1) from a Biotek Synergy H1 microplate reader at 600 nm.

SMILES: CC(C)C[C@@H]1NC(=O)[C@H](CCCCN=[N+]=[N-])NC(=O)CSC[C@@H](C(=O)N[C@@H](Cc2ccccc2)C(N)=O)NC(=O)[C@H](CCCCN)NC(=O)[C@H](CO)NC1=O [Cyc0] ({CH2CO}-[Lys(N3)]LSKCF-NH2; thioether N-5)
- apparent accumulation across the mycomembrane in Msm ([1]; PAC-MAN, 50 μM compound, 2 h, 37 °C, chase 50 μM Fl-az 1 h, flow cytometry, mean ± SD n = 3): better accumulation than any other member of this macrocyclic sub-library

SMILES: CC(=O)N[C@@H](CCCCN=[N+]=[N-])C(=O)N[C@@H](CC(C)C)C(=O)N[C@@H](CO)C(=O)N[C@@H](CCCCN)C(=O)N[C@@H](CO)C(=O)N[C@@H](Cc1ccccc1)C(N)=O [Lin0] (Ac-[Lys(N3)]LSKSF-NH2)
- time to full degradation in serum (Serum stability assay): ≤ 1 h

SMILES: CC(C)C[C@H](NC(=O)[C@H](CCCCN)NC(=O)CN=[N+]=[N-])C(=O)N[C@@H](CCCCN)C(=O)N(C)[C@@H](CC(C)C)C(=O)N(C)[C@@H](Cc1ccccc1)C(N)=O [Nmet2] (Azidoacetyl-KLK[NMeL][NMeF]-NH2)
- apparent accumulation across the mycomembrane in Msm [1]: increase was even more pronounced
